# Measurements reported in US20210315887A1, “METHODS OF ADMINISTERING THERAPY” (GALAPAGOS NV, priority 2018, published 2021).
# Entries after “also recorded” stand apart in the source; their conditions may differ. Where two headings read alike, the source gives them in different places.
# Test: Phase I open-label drug-drug interaction study: single-dose plasma pharmacokinetics of compound 1 before and after repeat doses of rifampicin
# Assay type: in vivo, human
# Details: for Mean maximal compound 1 plasma concentration: from mean concentration-time profile; for Cmax / AUC(0-t): po, 600 mg; for Cmax: healthy male subjects; for concentration at 24 h: read-out: C24h
# Experimental: A phase I, open-label, non-randomized, drug-drug interaction study in healthy male subjects is done to evaluate the impact of repeat doses of rifampicin, on the single-dose pharmacokinetics (PK) of compound 1 as well as to evaluate the safety and tolerability of a single dose of compound 1 administered before or after oral doses of rifampicin.
# Eighteen healthy male subjects received a single oral dose of 600 mg compound 1 on Day 1. From Days 2 to 11, 600 mg rifampicin was administered once daily (q.d.) to all subjects for 10 consecutive days. On Day 12, subjects received a single oral dose of 600 mg of compound 1 (see Table 1). A follow-up visit is conducted between days 15 and 18.
# On days 1, 2, 12, 13 (i.e. 1, 2, 3, 4, 5, 6, 7, 8, 12 and 24 hours post compound 1 administration on day 1 and day 12) and at the follow-up visit, blood samples for PK assessment of compound 1 are taken. Blood samples of 2 mL for the determination of compound 1 levels in plasma are collected by venipuncture (or indwelling catheter) in the arm, into vacuum tubes containing lithium heparin and are immediately chilled (ice bath).
# Within 30 min after blood collection, the plasma is separated by centrifugation at 4° C. for 10 min at circa 1,500 g and transferred into 2 polypropylene tubes with at least 400 μL of plasma in the first aliquot and the remaining volume in the second aliquot. After appropriate labeling, the plasma samples are stored in the clinical center at −20° C.±10° C. within 2 h following centrifugation and are protected from direct sunlight.
# Plasma concentrations were measured using validated liquid chromatography with tandem mass (LC/MS-MS) spectrometry methods with a limit of quantification of 1.00 ng/mL for compound 1, 20.0 mg/mL for cholesterol and 5.00 ng/mL for 4-β-hydroxycholesterol. Non-compartmental PK calculations are performed using Phoenix WinNonlin® (version 6.4).
# The following parameters are determined for compound 1 from individual concentration-time profiles in plasma: • Cmax: maximum observed plasma concentration • tmax: time of occurrence of Cmax • AUC0-t: area under the plasma concentration-time curve from time zero till the time corresponding with the last observed quantifiable concentration, calculated by the linear up-logarithmic down trapezoidal rule • AUC0-24h: area under the plasma concentration-time curve from time zero till 24 h post-dose, calculated by the linear up-logarithmic down trapezoidal rule • C24h: plasma concentration observed at 24 h post-dose
# Plasma concentrations and PK parameters of compound 1 are listed by day (Day 1: compound 1 before multiple rifampin doses; Day 12: compound 1 after multiple rifampin doses) for each subject. Descriptive statistics are calculated by day for the plasma concentration and PK parameters. Mean (±SE) concentration-time profiles are generated by day.
# A mixed-effects model with day as fixed effect and subject as random effect is performed on the following natural log (ln)-transformed PK parameters of compound 1: Cmax, C24h, AUC0-t, and AUC0-24h. […] The 90% confidence interval (CI) of the point estimate is calculated using the mean square error of the analysis of variance.
# As tmax is a discrete variable dependent on selected blood sampling times, day effect was assessed using a non-parametric test (Wilcoxon's signed-rank test).
# [1] = point estimate of least-squares geometric means ratio, Day 12 relative to Day 1
# [2] = rifampin 600 mg q.d. for 10 days, Day 12 vs Day 1
structure (smiles),measurement,setting,value
CCc1nc2c(C)cc(N3CCN(CC(=O)N4CC(O)C4)CC3)cn2c1N(C)c1nc(-c2ccc(F)cc2)c(C#N)s1 [Compound 1],Time post-dose at which mean maximal concentration is attained,"Day 1, single 600 mg oral dose",2 h
same,Mean maximal compound 1 plasma concentration,"Day 1, single 600 mg oral dose","7,870 ng/mL"
same,Time post-dose at which mean maximal concentration is attained,"Day 12, after multiple rifampin doses",2 h
same,Mean maximal compound 1 plasma concentration,"Day 12, single 600 mg oral dose after rifampin 600 mg q.d. 10 days","1,180 ng/mL"
same,Impact of multiple rifampin intake on compound 1 clearance,Day 12 compared with Day 1,no impact
same,Impact of multiple rifampin intake on apparent rate of elimination of compound 1,"Day 12 compared with Day 1, visual inspection of profiles",no impact
same,Decrease of AUC0-24h by multiple rifampin intake,Day 12 vs Day 1,89.2%
same,Decrease of Cmax by multiple rifampin intake,Day 12 vs Day 1,83.2%
same,Bioavailability of compound 1 after multiple rifampin intake,"as shown by point estimates, Day 12 vs Day 1",markedly lower
same,Elimination of compound 1 (shape of log-linear mean concentration-time profile),before and after multiple rifampin intake,biphasic
same,Cmax,"male, human, plasma, single oral 600 mg compound 1, after multiple rifampin doses 600 mg q.d. 10 days (Day 12), N = 18, arithmetic mean",1440 ng/mL
same,Cmax,"male, human, plasma, single oral 600 mg compound 1, before multiple rifampin doses (Day 1), N = 18, arithmetic mean",8660 ng/mL
same,AUC(0-t),"male, human, plasma, single oral 600 mg, after multiple rifampin doses (Day 12), N = 17, arithmetic mean, read-out: AUC0-24h",3750 ng·h/mL
same,AUC(0-t),"male, human, plasma, single oral 600 mg, after multiple rifampin doses (Day 12), N = 18, arithmetic mean, read-out: AUC0-t",3570 ng·h/mL
same,AUC(0-t),"male, human, plasma, single oral 600 mg, before multiple rifampin doses (Day 1), N = 18, arithmetic mean, read-out: AUC0-24h",36300 ng·h/mL
same,AUC(0-t),"male, human, plasma, single oral 600 mg, before multiple rifampin doses (Day 1), N = 18, arithmetic mean, read-out: AUC0-t",36300 ng·h/mL
same,concentration at 24 h,"male, human, plasma, single oral 600 mg, after multiple rifampin doses (Day 12), N = 18, arithmetic mean",1.69 ng/mL
same,concentration at 24 h,"male, human, plasma, single oral 600 mg, before multiple rifampin doses (Day 1), N = 18, arithmetic mean",83.4 ng/mL
same,Tmax,"male, human, plasma, single oral 600 mg, before multiple rifampin doses (Day 1), N = 18, median",2 h
same,AUC0-24h Comparison (PE %),[1],10.75%
same,AUC0-t Comparison (PE %),[1],10.24%
same,C24h Comparison (PE %),[1],2.48%
same,Cmax Comparison (PE %),[1],16.78%
same,Decrease of AUC0-24h by multiple rifampin intake,[2],9.3 fold
same,Decrease of Cmax by multiple rifampin intake,[2],6.0 fold
same,Day effect (rifampin) on tmax,statistical analysis Day 12 vs Day 1,no significant effect; also recorded: no significant impact
